# Data from ChEMBL document CHEMBL1201862, “PubChem BioAssay data set” (2004).
#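 1) Cells in 96-well plates. 2) Compound, 48 h, 5 concentrations. 3) Linear interpolation between surrounding doses. 4) Unreached endpoint = highest concentration. Abbreviation: GI50, concentration required for 50% inhibition of growth.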 Active and inactive are the calls of the source. Rule as the data show it: active = GI50 up to about 1.1 µM and inactive = higher.
# Columns and labels:
# Assay in all cases: inhibition of tumour cell growth, NCI panel, 48 h
# [1] = system: NCI-H23
# [2] = system: UACC-62
# [3] = system: SW-620
# [4] = system: OVCAR-5
# [5] = system: MOLT-4
# [6] = system: HCT-116
# [7] = system: SK-OV-3
# [8] = system: SF-268
# [9] = system: OVCAR-8
# [10] = system: SF-539
# [11] = system: KM12
# [12] = system: EKVX
# [13] = system: 786-0
# [14] = system: IGROV-1
# [15] = system: DMS-273
# [16] = system: UACC-257
# [17] = system: SF-295
# [18] = system: DLD-1
# [19] = system: HOP-92
# [20] = system: SK-MEL-28
# [21] = system: HCC 2998
# [22] = system: SNB-19
# [23] = system: HOP-62
# [24] = system: HT-29
# [25] = system: TK-10
# [26] = system: CCRF-CEM
# [27] = system: ACHN
# [28] = system: SK-MEL-2
# [29] = system: M14
# [30] = system: M19-MEL
# [31] = system: A498
# [32] = system: RPMI-8226
# [33] = system: OVCAR-4
# [34] = system: KM-20L2
# [35] = system: HOP-18
# [36] = system: HL-60
# [37] = system: U-251
# [38] = system: COLO 205
# [39] = system: A549
# [40] = system: RXF 393
# [41] = system: SN12C
# [42] = system: UO-31
# [43] = system: DMS-114
# [44] = system: NCI-H226
# [45] = system: SNB-78
# [46] = system: SNB-75
# [47] = system: CAKI-1
# [48] = system: NCI-H460
# [49] = system: SK-MEL-5
# [50] = system: OVCAR-3
# [51] = system: NCI-H522
# [52] = system: LOX IMVI
# [53] = system: K562
# [54] = system: Malme-3M
# [55] = system: LXFL 529
# [56] = system: HCT-15
# [57] = system: MDA-MB-231
# [58] = system: T47D
# [59] = system: Hs-578T
# [60] = system: BT-549
# [61] = system: SR
# [62] = system: MDA-MB-435
# [63] = system: PC-3
# [64] = system: NCI/ADR-RES
# [65] = system: DU-145
# [66] = system: MDA-N
# [67] = system: MCF7
smiles,measurement,setting,value
O=C1NC(=O)c2c1n(Cc1ccccc1)c(=O)n2Cc1ccccc1,GI50,[1],> 100 µM (inactive)
same,GI50,[2],84.3 µM (inactive)
same,GI50,[3],> 100 µM (inactive)
same,GI50,[4],> 100 µM (inactive)
same,GI50,[5],> 100 µM (inactive)
same,GI50,[6],> 100 µM (inactive)
same,GI50,[7],> 100 µM (inactive)
same,GI50,[8],> 100 µM (inactive)
same,GI50,[9],> 100 µM (inactive)
same,GI50,[10],36 µM (inactive)
same,GI50,[11],> 100 µM (inactive)
same,GI50,[12],> 100 µM (inactive)
same,GI50,[13],> 100 µM (inactive)
same,GI50,[14],> 100 µM (inactive)
same,GI50,[15],> 100 µM (inactive)
same,GI50,[16],> 100 µM (inactive)
same,GI50,[17],> 100 µM (inactive)
same,GI50,[18],> 100 µM (inactive)
same,GI50,[19],25.8 µM (inactive)
same,GI50,[20],> 100 µM (inactive)
same,GI50,[21],> 100 µM (inactive)
same,GI50,[22],> 100 µM (inactive)
same,GI50,[23],> 100 µM (inactive)
same,GI50,[24],> 100 µM (inactive)
same,GI50,[25],96.6 µM (inactive)
same,GI50,[26],> 100 µM (inactive)
same,GI50,[27],> 100 µM (inactive)
same,GI50,[28],> 100 µM (inactive)
same,GI50,[29],> 100 µM (inactive)
same,GI50,[30],> 100 µM (inactive)
same,GI50,[31],30.4 µM (inactive)
same,GI50,[32],53.2 µM (inactive)
same,GI50,[33],> 100 µM (inactive)
same,GI50,[34],> 100 µM (inactive)
same,GI50,[35],> 100 µM (inactive)
same,GI50,[36],87.7 µM (inactive)
same,GI50,[37],> 100 µM (inactive)
same,GI50,[38],> 100 µM (inactive)
same,GI50,[39],> 100 µM (inactive)
same,GI50,[40],> 100 µM (inactive)
same,GI50,[41],> 100 µM (inactive)
same,GI50,[42],> 100 µM (inactive)
same,GI50,[43],> 100 µM (inactive)
same,GI50,[44],> 100 µM (inactive)
same,GI50,[45],> 100 µM (inactive)
same,GI50,[46],> 100 µM (inactive)
same,GI50,[47],> 100 µM (inactive)
same,GI50,[48],86.7 µM (inactive)
same,GI50,[49],> 100 µM (inactive)
same,GI50,[50],> 100 µM (inactive)
same,GI50,[51],> 100 µM (inactive)
same,GI50,[52],> 100 µM (inactive)
same,GI50,[53],35.8 µM (inactive)
same,GI50,[54],> 100 µM (inactive)
same,GI50,[55],> 100 µM (inactive)
same,GI50,[56],77.8 µM
Cc1cc(S(=O)(=O)Nc2nc(Nc3ccc4ccccc4c3)n[nH]2)c(S)cc1Cl,GI50,[57],92.9 µM (inactive)
same,GI50,[1],43 µM (inactive)
same,GI50,[58],63.7 µM (inactive)
same,GI50,[2],66.4 µM (inactive)
same,GI50,[59],22.2 µM (inactive)
same,GI50,[3],44.7 µM (inactive)
same,GI50,[4],73.8 µM (inactive)
same,GI50,[5],> 100 µM (inactive)
same,GI50,[6],41.5 µM (inactive)
same,GI50,[7],46.2 µM (inactive)
same,GI50,[60],75.9 µM (inactive)
same,GI50,[8],72.1 µM (inactive)
same,GI50,[9],64.3 µM (inactive)
same,GI50,[10],14 µM (inactive)
same,GI50,[11],25.4 µM (inactive)
same,GI50,[12],> 100 µM (inactive)
same,GI50,[13],47.3 µM (inactive)
same,GI50,[14],52.8 µM (inactive)
same,GI50,[16],34.3 µM (inactive)
same,GI50,[17],30.2 µM (inactive)
same,GI50,[61],> 100 µM (inactive)
same,GI50,[19],52.5 µM (inactive)
same,GI50,[20],> 100 µM (inactive)
same,GI50,[62],24.9 µM (inactive)
same,GI50,[21],61.4 µM (inactive)
same,GI50,[22],49.3 µM (inactive)
same,GI50,[63],33.6 µM (inactive)
same,GI50,[23],28.1 µM (inactive)
same,GI50,[24],> 100 µM (inactive)
same,GI50,[25],> 100 µM (inactive)
same,GI50,[26],> 100 µM (inactive)
same,GI50,[64],> 100 µM (inactive)
same,GI50,[27],84.9 µM (inactive)
same,GI50,[28],24 µM (inactive)
same,GI50,[29],46.8 µM (inactive)
same,GI50,[65],54.3 µM (inactive)
same,GI50,[31],26.4 µM (inactive)
same,GI50,[32],> 100 µM (inactive)
same,GI50,[33],79.1 µM (inactive)
same,GI50,[36],> 100 µM (inactive)
same,GI50,[37],39.9 µM (inactive)
same,GI50,[38],57.8 µM (inactive)
same,GI50,[39],55.7 µM (inactive)
same,GI50,[40],75.2 µM (inactive)
same,GI50,[41],48.2 µM (inactive)
same,GI50,[42],> 100 µM (inactive)
same,GI50,[44],34.1 µM (inactive)
same,GI50,[46],43.3 µM (inactive)
same,GI50,[47],52.8 µM (inactive)
same,GI50,[48],34.8 µM (inactive)
same,GI50,[49],22.5 µM (inactive)
same,GI50,[50],23.2 µM (inactive)
same,GI50,[51],30.3 µM (inactive)
same,GI50,[66],13.7 µM (inactive)
same,GI50,[52],45.6 µM (inactive)
same,GI50,[53],> 100 µM (inactive)
same,GI50,[54],89.7 µM (inactive)
same,GI50,[56],42.3 µM
same,GI50,[67],74.8 µM (inactive)
